Columns and labels:
Format in all cases: biochemical
Settings in all cases: 5 µM inhibitor
EEF2K = target: T1, EEF2K (Homo sapiens, UniProt O00418); experiment: Selectivity panel EEF2K
T1 construct: purchased Life Technologies (Invitrogen SelectScreen); Dyrk1A, Dyrk2 and CK2α in-house or gifts

ROCK2 = target: T2, ROCK2 (Homo sapiens, UniProt O75116); experiment: Selectivity panel ROCK2
T2 construct: purchased Life Technologies (Invitrogen SelectScreen); Dyrk1A, Dyrk2 and CK2α in-house or gifts

MAP2K6 (MKK6) = target: T3, MAP2K6 (MKK6) (Homo sapiens, UniProt P52564); experiment: Selectivity panel MAP2K6
T3 construct: purchased Life Technologies (Invitrogen SelectScreen); Dyrk1A, Dyrk2 and CK2α in-house or gifts

ZAP70 = target: T4, ZAP70 (Homo sapiens, UniProt P43403); experiment: Selectivity panel ZAP70
T4 construct: purchased Life Technologies (Invitrogen SelectScreen); Dyrk1A, Dyrk2 and CK2α in-house or gifts

PLK2/SNK = target: T5, PLK2/SNK (Homo sapiens, UniProt Q9NYY3); experiment: Selectivity panel PLK2/SNK
T5 construct: purchased Life Technologies (Invitrogen SelectScreen); Dyrk1A, Dyrk2 and CK2α in-house or gifts

MAPKAPK2 = target: T6, MAPKAPK2 (Homo sapiens, UniProt P49137); experiment: Selectivity panel MAPKAPK2
T6 construct: purchased Life Technologies (Invitrogen SelectScreen); Dyrk1A, Dyrk2 and CK2α in-house or gifts

TBK1 = target: T7, TBK1 (Homo sapiens, UniProt Q9UHD2); experiment: Selectivity panel TBK1
T7 construct: purchased Life Technologies (Invitrogen SelectScreen); Dyrk1A, Dyrk2 and CK2α in-house or gifts

MYLK2 (skMLCK) = target: T8, MYLK2 (skMLCK) (Homo sapiens, UniProt Q9H1R3); experiment: Selectivity panel MYLK2
T8 construct: purchased Life Technologies (Invitrogen SelectScreen); Dyrk1A, Dyrk2 and CK2α in-house or gifts

DAPK3 (ZIPK) = target: T9, DAPK3 (ZIPK) (Homo sapiens, UniProt O43293); experiment: Selectivity panel DAPK3
T9 construct: purchased Life Technologies (Invitrogen SelectScreen); Dyrk1A, Dyrk2 and CK2α in-house or gifts

PIM2 = target: T10, PIM2 (Homo sapiens, UniProt Q9P1W9); experiment: Selectivity panel PIM2
T10 construct: purchased Life Technologies (Invitrogen SelectScreen); Dyrk1A, Dyrk2 and CK2α in-house or gifts

MAPK1 (ERK2) = target: T11, MAPK1 (ERK2) (Homo sapiens, UniProt P28482); experiment: Selectivity panel MAPK1
T11 construct: purchased Life Technologies (Invitrogen SelectScreen); Dyrk1A, Dyrk2 and CK2α in-house or gifts

RPS6KA5 (MSK1) = target: T12, RPS6KA5 (MSK1) (Homo sapiens, UniProt O75582); experiment: Selectivity panel RPS6KA5
T12 construct: purchased Life Technologies (Invitrogen SelectScreen); Dyrk1A, Dyrk2 and CK2α in-house or gifts

MKNK1 (MNK1) = target: T13, MKNK1 (MNK1) (Homo sapiens, UniProt Q9BUB5); experiment: Selectivity panel MKNK1
T13 construct: purchased Life Technologies (Invitrogen SelectScreen); Dyrk1A, Dyrk2 and CK2α in-house or gifts

STK23 (MSSK1) = target: T14, STK23 (MSSK1) (Homo sapiens, UniProt Q9UPE1); experiment: Selectivity panel STK23
T14 construct: purchased Life Technologies (Invitrogen SelectScreen); Dyrk1A, Dyrk2 and CK2α in-house or gifts

JAK2 = target: T15, JAK2 (Homo sapiens, UniProt O60674); experiment: Selectivity panel JAK2
T15 construct: purchased Life Technologies (Invitrogen SelectScreen); Dyrk1A, Dyrk2 and CK2α in-house or gifts

HIPK4 = target: T16, HIPK4 (Homo sapiens, UniProt Q8NE63); experiment: Selectivity panel HIPK4
T16 construct: purchased Life Technologies (Invitrogen SelectScreen); Dyrk1A, Dyrk2 and CK2α in-house or gifts

MAPK10 (JNK3) = target: T17, MAPK10 (JNK3) (Homo sapiens, UniProt P53779); experiment: Selectivity panel MAPK10
T17 construct: purchased Life Technologies (Invitrogen SelectScreen); Dyrk1A, Dyrk2 and CK2α in-house or gifts

ACVR1 (ALK2) = target: T18, ACVR1 (ALK2) (Homo sapiens, UniProt Q04771); experiment: Selectivity panel ACVR1
T18 construct: purchased Life Technologies (Invitrogen SelectScreen); Dyrk1A, Dyrk2 and CK2α in-house or gifts

EPHB3 = target: T19, EPHB3 (Homo sapiens, UniProt P54753); experiment: Selectivity panel EPHB3
T19 construct: purchased Life Technologies (Invitrogen SelectScreen); Dyrk1A, Dyrk2 and CK2α in-house or gifts

TAOK2 (TAO1) = target: T20, TAOK2 (TAO1) (Homo sapiens, UniProt Q9UL54); experiment: Selectivity panel TAOK2
T20 construct: purchased Life Technologies (Invitrogen SelectScreen); Dyrk1A, Dyrk2 and CK2α in-house or gifts

DYRK4 = target: T21, DYRK4 (Homo sapiens, UniProt Q9NR20); experiment: Selectivity panel DYRK4
T21 construct: purchased Life Technologies (Invitrogen SelectScreen); Dyrk1A, Dyrk2 and CK2α in-house or gifts

NEK1 = target: T22, NEK1 (Homo sapiens, UniProt Q96PY6); experiment: Selectivity panel NEK1
T22 construct: purchased Life Technologies (Invitrogen SelectScreen); Dyrk1A, Dyrk2 and CK2α in-house or gifts

NEK7 = target: T23, NEK7 (Homo sapiens, UniProt Q8TDX7); experiment: Selectivity panel NEK7
T23 construct: purchased Life Technologies (Invitrogen SelectScreen); Dyrk1A, Dyrk2 and CK2α in-house or gifts

IKBKB (IKK beta) = target: T24, IKBKB (IKK beta) (Homo sapiens, UniProt O14920); experiment: Selectivity panel IKBKB
T24 construct: purchased Life Technologies (Invitrogen SelectScreen); Dyrk1A, Dyrk2 and CK2α in-house or gifts

PKN1 (PRK1) = target: T25, PKN1 (PRK1) (Homo sapiens, UniProt Q16512); experiment: Selectivity panel PKN1
T25 construct: purchased Life Technologies (Invitrogen SelectScreen); Dyrk1A, Dyrk2 and CK2α in-house or gifts

MAPK9 (JNK2) = target: T26, MAPK9 (JNK2) (Homo sapiens, UniProt P45984); experiment: Selectivity panel MAPK9
T26 construct: purchased Life Technologies (Invitrogen SelectScreen); Dyrk1A, Dyrk2 and CK2α in-house or gifts

PDK1 = target: T27, PDK1 (Homo sapiens, UniProt O15530); experiment: Selectivity panel PDK1
T27 construct: purchased Life Technologies (Invitrogen SelectScreen); Dyrk1A, Dyrk2 and CK2α in-house or gifts

PTK6 (Brk) = target: T28, PTK6 (Brk) (Homo sapiens, UniProt Q13882); experiment: Selectivity panel PTK6
T28 construct: purchased Life Technologies (Invitrogen SelectScreen); Dyrk1A, Dyrk2 and CK2α in-house or gifts

ZAK = target: T29, ZAK (Homo sapiens, UniProt Q9NYL2); experiment: Selectivity panel ZAK
T29 construct: purchased Life Technologies (Invitrogen SelectScreen); Dyrk1A, Dyrk2 and CK2α in-house or gifts

STK22B (TSSK2) = target: T30, STK22B (TSSK2) (Homo sapiens, UniProt Q96PF2); experiment: Selectivity panel STK22B
T30 construct: purchased Life Technologies (Invitrogen SelectScreen); Dyrk1A, Dyrk2 and CK2α in-house or gifts

IGF1R = target: T31, IGF1R (Homo sapiens, UniProt P08069); experiment: Selectivity panel IGF1R
T31 construct: purchased Life Technologies (Invitrogen SelectScreen); Dyrk1A, Dyrk2 and CK2α in-house or gifts

AURKA (Aurora A) = target: T32, AURKA (Aurora A) (Homo sapiens, UniProt O14965); experiment: Selectivity panel AURKA
T32 construct: purchased Life Technologies (Invitrogen SelectScreen); Dyrk1A, Dyrk2 and CK2α in-house or gifts

LIMK1 = target: T33, LIMK1 (Homo sapiens, UniProt P53667); experiment: Selectivity panel LIMK1
T33 construct: purchased Life Technologies (Invitrogen SelectScreen); Dyrk1A, Dyrk2 and CK2α in-house or gifts

SGK (SGK1) = target: T34, SGK (SGK1) (Homo sapiens, UniProt O00141); experiment: Selectivity panel SGK
T34 construct: purchased Life Technologies (Invitrogen SelectScreen); Dyrk1A, Dyrk2 and CK2α in-house or gifts

PRKCE (PKC epsilon) = target: T35, PRKCE (PKC epsilon) (Homo sapiens, UniProt Q02156); experiment: Selectivity panel PRKCE
T35 construct: purchased Life Technologies (Invitrogen SelectScreen); Dyrk1A, Dyrk2 and CK2α in-house or gifts

CLK4 = target: T36, CLK4 (Homo sapiens, UniProt Q9HAZ1); experiment: Selectivity panel CLK4
T36 construct: purchased Life Technologies (Invitrogen SelectScreen); Dyrk1A, Dyrk2 and CK2α in-house or gifts

BRSK1 (SAD1) = target: T37, BRSK1 (SAD1) (Homo sapiens, UniProt Q8TDC3); experiment: Selectivity panel BRSK1
T37 construct: purchased Life Technologies (Invitrogen SelectScreen); Dyrk1A, Dyrk2 and CK2α in-house or gifts

TNK2 (ACK) = target: T38, TNK2 (ACK) (Homo sapiens, UniProt Q07912); experiment: Selectivity panel TNK2
T38 construct: purchased Life Technologies (Invitrogen SelectScreen); Dyrk1A, Dyrk2 and CK2α in-house or gifts

MAPK8 (JNK1) = target: T39, MAPK8 (JNK1) (Homo sapiens, UniProt P45983); experiment: Selectivity panel MAPK8
T39 construct: purchased Life Technologies (Invitrogen SelectScreen); Dyrk1A, Dyrk2 and CK2α in-house or gifts

MAP4K2 (GCK) = target: T40, MAP4K2 (GCK) (Homo sapiens, UniProt Q12851); experiment: Selectivity panel MAP4K2
T40 construct: purchased Life Technologies (Invitrogen SelectScreen); Dyrk1A, Dyrk2 and CK2α in-house or gifts

KDR (VEGFR2) = target: T41, KDR (VEGFR2) (Homo sapiens, UniProt P35968); experiment: Selectivity panel KDR
T41 construct: purchased Life Technologies (Invitrogen SelectScreen); Dyrk1A, Dyrk2 and CK2α in-house or gifts

TEK (Tie2) = target: T42, TEK (Tie2) (Homo sapiens, UniProt Q02763); experiment: Selectivity panel TEK
T42 construct: purchased Life Technologies (Invitrogen SelectScreen); Dyrk1A, Dyrk2 and CK2α in-house or gifts

T11 sequence (P28482 whole entry): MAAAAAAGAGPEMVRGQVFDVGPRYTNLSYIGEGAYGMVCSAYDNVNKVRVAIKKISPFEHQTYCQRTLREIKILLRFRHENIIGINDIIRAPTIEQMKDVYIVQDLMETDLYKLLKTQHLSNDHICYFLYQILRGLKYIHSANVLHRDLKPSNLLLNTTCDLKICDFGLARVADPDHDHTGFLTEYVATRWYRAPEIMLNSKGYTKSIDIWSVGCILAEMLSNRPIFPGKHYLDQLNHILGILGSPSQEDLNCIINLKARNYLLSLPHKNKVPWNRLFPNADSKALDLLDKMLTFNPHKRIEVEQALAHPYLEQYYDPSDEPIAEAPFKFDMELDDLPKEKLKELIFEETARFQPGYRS
T29 sequence (Q9NYL2 whole entry): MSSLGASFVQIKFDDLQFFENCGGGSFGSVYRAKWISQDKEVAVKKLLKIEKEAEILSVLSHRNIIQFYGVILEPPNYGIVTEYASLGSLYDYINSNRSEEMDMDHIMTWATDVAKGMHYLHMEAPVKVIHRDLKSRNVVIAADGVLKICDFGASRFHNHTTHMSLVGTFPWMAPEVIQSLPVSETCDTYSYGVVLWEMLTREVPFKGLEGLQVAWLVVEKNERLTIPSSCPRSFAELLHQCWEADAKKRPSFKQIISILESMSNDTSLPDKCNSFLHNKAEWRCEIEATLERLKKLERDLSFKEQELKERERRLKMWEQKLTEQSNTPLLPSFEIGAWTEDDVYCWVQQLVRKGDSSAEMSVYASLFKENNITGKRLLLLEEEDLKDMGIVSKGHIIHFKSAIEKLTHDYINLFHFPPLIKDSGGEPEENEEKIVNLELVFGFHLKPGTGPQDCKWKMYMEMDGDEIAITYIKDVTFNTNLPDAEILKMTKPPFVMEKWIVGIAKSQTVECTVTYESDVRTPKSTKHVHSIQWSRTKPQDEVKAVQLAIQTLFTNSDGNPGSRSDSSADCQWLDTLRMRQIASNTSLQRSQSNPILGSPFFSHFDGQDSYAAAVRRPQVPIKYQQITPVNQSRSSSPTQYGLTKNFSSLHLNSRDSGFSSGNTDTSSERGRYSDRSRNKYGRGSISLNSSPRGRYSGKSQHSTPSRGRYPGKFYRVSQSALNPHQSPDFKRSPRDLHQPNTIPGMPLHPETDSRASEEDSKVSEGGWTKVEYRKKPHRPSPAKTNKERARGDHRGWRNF
T27 sequence (O15530 whole entry): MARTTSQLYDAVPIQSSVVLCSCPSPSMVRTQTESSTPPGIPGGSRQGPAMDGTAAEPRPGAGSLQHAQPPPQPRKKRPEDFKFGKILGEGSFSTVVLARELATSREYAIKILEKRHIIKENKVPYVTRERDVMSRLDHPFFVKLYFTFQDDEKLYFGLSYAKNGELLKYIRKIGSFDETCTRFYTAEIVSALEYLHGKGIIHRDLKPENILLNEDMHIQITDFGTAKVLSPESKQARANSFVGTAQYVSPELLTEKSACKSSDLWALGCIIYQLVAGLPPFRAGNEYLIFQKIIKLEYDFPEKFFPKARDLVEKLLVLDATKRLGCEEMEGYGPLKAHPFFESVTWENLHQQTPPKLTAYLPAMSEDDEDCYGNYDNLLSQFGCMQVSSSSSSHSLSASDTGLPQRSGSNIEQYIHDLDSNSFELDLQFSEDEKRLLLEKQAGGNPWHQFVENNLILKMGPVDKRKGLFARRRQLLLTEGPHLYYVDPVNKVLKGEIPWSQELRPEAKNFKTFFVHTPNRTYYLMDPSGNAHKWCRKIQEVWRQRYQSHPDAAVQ
T40 sequence (Q12851 whole entry): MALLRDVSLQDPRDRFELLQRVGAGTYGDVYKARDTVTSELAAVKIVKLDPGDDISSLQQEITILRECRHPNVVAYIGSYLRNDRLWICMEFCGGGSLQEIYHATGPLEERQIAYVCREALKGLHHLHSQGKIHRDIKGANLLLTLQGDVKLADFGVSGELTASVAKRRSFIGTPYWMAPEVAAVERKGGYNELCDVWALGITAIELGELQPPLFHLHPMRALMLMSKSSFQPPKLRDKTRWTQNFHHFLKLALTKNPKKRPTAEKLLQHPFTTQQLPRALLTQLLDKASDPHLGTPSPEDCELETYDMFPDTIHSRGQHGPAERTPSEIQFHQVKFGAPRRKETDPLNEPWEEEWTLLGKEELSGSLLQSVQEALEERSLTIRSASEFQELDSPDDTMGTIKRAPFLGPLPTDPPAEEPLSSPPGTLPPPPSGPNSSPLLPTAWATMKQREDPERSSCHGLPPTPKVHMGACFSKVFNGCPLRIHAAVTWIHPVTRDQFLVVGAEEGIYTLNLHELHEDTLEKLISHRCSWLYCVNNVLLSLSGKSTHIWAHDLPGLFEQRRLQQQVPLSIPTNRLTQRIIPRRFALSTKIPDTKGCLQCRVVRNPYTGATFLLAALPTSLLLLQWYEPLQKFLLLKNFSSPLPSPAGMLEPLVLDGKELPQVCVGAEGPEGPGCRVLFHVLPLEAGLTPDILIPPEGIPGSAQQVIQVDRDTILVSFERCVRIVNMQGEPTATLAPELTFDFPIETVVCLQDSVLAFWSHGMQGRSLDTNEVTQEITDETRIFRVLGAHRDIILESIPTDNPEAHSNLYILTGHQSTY
T28 sequence (Q13882 whole entry): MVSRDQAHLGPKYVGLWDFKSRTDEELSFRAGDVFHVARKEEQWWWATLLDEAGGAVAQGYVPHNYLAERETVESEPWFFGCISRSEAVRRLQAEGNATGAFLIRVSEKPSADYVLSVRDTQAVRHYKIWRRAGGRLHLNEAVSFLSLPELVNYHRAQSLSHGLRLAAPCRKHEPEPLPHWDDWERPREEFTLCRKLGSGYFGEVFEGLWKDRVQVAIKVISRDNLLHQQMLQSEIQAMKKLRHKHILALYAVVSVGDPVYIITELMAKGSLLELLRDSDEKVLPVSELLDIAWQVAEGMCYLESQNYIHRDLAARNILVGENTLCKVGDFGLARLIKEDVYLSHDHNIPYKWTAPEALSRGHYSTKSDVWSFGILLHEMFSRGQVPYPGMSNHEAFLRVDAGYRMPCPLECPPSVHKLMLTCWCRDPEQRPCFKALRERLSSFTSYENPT
T12 sequence (O75582 whole entry): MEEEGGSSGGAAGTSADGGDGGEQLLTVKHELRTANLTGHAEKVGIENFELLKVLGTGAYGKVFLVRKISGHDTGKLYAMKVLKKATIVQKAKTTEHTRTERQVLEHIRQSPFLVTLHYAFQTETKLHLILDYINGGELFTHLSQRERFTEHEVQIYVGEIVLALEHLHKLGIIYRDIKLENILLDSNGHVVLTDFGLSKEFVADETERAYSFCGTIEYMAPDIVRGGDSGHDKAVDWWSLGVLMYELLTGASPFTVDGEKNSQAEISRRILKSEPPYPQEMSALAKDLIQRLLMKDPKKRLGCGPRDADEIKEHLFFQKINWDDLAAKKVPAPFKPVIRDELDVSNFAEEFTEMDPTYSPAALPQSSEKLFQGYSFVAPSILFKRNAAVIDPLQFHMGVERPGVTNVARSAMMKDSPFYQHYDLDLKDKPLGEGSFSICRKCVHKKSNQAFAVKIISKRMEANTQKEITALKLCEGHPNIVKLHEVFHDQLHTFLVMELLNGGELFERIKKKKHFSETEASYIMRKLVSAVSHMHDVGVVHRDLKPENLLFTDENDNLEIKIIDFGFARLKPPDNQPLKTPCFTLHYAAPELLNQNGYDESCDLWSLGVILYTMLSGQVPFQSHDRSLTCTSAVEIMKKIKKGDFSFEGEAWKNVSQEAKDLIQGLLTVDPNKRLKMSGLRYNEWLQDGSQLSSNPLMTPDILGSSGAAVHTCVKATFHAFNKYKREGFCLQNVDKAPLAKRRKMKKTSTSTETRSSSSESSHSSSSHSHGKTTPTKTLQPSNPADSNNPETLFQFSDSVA
T23 sequence (Q8TDX7 whole entry): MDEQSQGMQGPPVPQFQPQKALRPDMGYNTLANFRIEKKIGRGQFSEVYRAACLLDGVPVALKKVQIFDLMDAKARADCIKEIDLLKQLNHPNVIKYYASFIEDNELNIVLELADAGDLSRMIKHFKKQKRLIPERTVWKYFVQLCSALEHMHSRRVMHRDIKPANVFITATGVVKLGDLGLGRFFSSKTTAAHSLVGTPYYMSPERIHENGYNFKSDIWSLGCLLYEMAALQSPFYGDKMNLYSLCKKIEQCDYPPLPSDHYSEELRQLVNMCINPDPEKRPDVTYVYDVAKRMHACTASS
T4 sequence (P43403 whole entry): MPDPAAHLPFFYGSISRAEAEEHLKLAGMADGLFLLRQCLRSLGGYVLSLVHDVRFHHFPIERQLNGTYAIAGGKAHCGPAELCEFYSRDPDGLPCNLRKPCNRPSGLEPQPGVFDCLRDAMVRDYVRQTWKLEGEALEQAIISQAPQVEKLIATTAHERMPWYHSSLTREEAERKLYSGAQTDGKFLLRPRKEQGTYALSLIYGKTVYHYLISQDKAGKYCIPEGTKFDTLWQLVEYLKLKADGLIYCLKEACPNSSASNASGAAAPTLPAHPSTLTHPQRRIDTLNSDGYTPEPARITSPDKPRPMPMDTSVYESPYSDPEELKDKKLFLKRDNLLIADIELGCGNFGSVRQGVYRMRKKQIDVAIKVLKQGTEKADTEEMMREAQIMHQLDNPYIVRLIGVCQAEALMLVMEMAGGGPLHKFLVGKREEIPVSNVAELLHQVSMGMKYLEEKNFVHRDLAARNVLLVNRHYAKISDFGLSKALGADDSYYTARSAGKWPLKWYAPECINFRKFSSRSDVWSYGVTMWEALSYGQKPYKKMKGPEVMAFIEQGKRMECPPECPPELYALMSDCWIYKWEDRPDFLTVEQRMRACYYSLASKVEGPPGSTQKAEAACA
T10 sequence (Q9P1W9 whole entry): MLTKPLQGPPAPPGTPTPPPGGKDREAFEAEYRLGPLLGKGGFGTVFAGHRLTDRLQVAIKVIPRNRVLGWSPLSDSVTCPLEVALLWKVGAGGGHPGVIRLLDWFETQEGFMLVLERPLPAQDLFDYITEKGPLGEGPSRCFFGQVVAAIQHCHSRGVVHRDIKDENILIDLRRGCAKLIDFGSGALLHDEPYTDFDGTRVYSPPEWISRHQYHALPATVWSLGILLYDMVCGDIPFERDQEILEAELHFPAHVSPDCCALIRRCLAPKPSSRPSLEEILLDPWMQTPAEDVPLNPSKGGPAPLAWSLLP

## c1cncc(-c2csc(-c3cncs3)c2)c1 [Compound 48, 3-[5-(1,3-thiazol-5-yl)thiophen-3-yl]pyridine]
EEF2K
  inhibition at 5 µM: 1%
ROCK2
  inhibition at 5 µM: 9%
MAP2K6 (MKK6)
  inhibition at 5 µM: 7%
ZAP70
  inhibition at 5 µM: -1%
PLK2/SNK
  inhibition at 5 µM: 1%
MAPKAPK2
  inhibition at 5 µM: 2%
TBK1
  inhibition at 5 µM: 8%
MYLK2 (skMLCK)
  inhibition at 5 µM: 31%
DAPK3 (ZIPK)
  inhibition at 5 µM: -5%
PIM2
  inhibition at 5 µM: 5%
MAPK1 (ERK2)
  inhibition at 5 µM: 1%
RPS6KA5 (MSK1)
  inhibition at 5 µM: 10%
MKNK1 (MNK1)
  inhibition at 5 µM: 47%
STK23 (MSSK1)
  inhibition at 5 µM: 0%
JAK2
  inhibition at 5 µM: -4%
HIPK4
  inhibition at 5 µM: 7%
MAPK10 (JNK3)
  inhibition at 5 µM: 2%
ACVR1 (ALK2)
  inhibition at 5 µM: 51%
EPHB3
  inhibition at 5 µM: 1%
TAOK2 (TAO1)
  inhibition at 5 µM: -6%
DYRK4
  inhibition at 5 µM: 12%
NEK1
  inhibition at 5 µM: -5%
NEK7
  inhibition at 5 µM: -7%
IKBKB (IKK beta)
  inhibition at 5 µM: 12%
PKN1 (PRK1)
  inhibition at 5 µM: -10%
MAPK9 (JNK2)
  inhibition at 5 µM: -6%
PDK1
  inhibition at 5 µM: 7%
PTK6 (Brk)
  inhibition at 5 µM: 34%
ZAK
  inhibition at 5 µM: 11%
STK22B (TSSK2)
  inhibition at 5 µM: -2%
IGF1R
  inhibition at 5 µM: 3%
AURKA (Aurora A)
  inhibition at 5 µM: 2%
LIMK1
  inhibition at 5 µM: 4%
SGK (SGK1)
  inhibition at 5 µM: 22%
PRKCE (PKC epsilon)
  inhibition at 5 µM: -5%
CLK4
  inhibition at 5 µM: 99%
BRSK1 (SAD1)
  inhibition at 5 µM: -4%
TNK2 (ACK)
  inhibition at 5 µM: 8%
MAPK8 (JNK1)
  inhibition at 5 µM: 5%
MAP4K2 (GCK)
  inhibition at 5 µM: 6%
KDR (VEGFR2)
  inhibition at 5 µM: 10%
TEK (Tie2)
  inhibition at 5 µM: 0%

Source: paper PMC3968014, “Design and Synthesis of a Library of Lead-Like 2,4-Bisheterocyclic Substituted Thiophenes as Selective Dyrk/Clk Inhibitors” (PLoS ONE, 2014)
